Laboratory results from PMC9929232, “On-demand male contraception via acute inhibition of soluble adenylyl cyclase” (Nature Communications, 2023).
Where “and” joins values, the source holds several entries; their conditions need not be identical. Identical values can stand only once. Entries after “also recorded” stand apart in the source; their conditions may differ.

Tests used:
[1] = biological target: T1, sAC-overexpressing rat 4-4 cells (Rattus norvegicus, UniProt Q9Z286); test: Cellular cAMP accumulation in sAC-overexpressing 4-4 cells;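 on cAMP accumulated (%): percent of DMSO-treated control cAMP accumulation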; format: cell-based; parameters: cAMP accumulated: unit not given here; conditions: for cAMP accumulated (%): Fig. 1d normalized replicates; for cAMP accumulated: Fig. 1d replicates
T1 construct: expressed in transfected cells
T1 sequence (Q9Z286 1-469 limits assumed): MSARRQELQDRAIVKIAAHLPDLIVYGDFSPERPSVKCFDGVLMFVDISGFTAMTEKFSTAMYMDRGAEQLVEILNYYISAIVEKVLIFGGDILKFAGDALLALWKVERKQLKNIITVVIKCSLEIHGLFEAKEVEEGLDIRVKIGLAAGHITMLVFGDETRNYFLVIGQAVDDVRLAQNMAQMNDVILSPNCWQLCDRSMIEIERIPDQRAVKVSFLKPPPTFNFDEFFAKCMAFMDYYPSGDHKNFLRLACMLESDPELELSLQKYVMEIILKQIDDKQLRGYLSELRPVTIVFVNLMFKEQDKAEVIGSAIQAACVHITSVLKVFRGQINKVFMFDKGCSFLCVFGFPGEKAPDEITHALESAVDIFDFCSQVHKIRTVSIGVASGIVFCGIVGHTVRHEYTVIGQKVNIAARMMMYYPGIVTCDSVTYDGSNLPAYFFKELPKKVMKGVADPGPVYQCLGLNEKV
Protocol: sAC-overexpressing rat 4-4 cells were generated and functionally authenticated in our laboratory as previously described[33] and grown in DMEM + 10% FBS. Cells were maintained at 37 °C in 5% CO2 and were periodically checked for mycoplasma contamination.
To assess potency in a cellular system, we utilized 4-4 cells, which stably overexpress sAC[20],[33],[56]. Cellular levels of cAMP reflect a balance between its synthesis by adenylyl cyclases and its degradation by phosphodiesterases (PDEs). […] On the day prior to the assay, 5 × 10^6 cells/ml were seeded in 24-well plates in DMEM with 10% FBS. To measure sAC-dependent cAMP accumulation, cells were pretreated for 10 min with the respective inhibitor at the indicated concentrations or DMSO as control in 300 µl fresh media. Cyclic AMP accumulation was initiated by the addition of 500 µM IBMX, and after 5 min, the media was removed, and the cells were lysed with 250 µl 0.1 M HCl by shaking at 700 rpm for 10 min.

[2] = cited from earlier work
[3] = tested on: hERG; conditions: cited from earlier work
[4] = tested on: tmACs from each subfamily; conditions: cited from earlier work
[5] = tested on: fertility of male mice; test: Timed mouse mating (contraceptive efficacy); format: in vivo; conditions: for Contraceptive efficacy: vs vehicle
Protocol: Single-housed naive (i.e., uninjected and virgin) male and female C57Bl/6 mice were acclimatized to a reverse light cycle (dark: 11 AM to 11 PM) for at least 2 weeks. […] Pregnancy and litter size was assessed in two ways. Either female were sacrificed 7 days following mating and implanted embryos counted, or females were permitted to go to term (21 days) and pups counted. A subset of the pups (both male and female) born from breakthrough pregnancies were permitted to mature and their fertility was assessed in standard matings.

[6] = tested on: ejaculated uterine mouse sperm; test: cAMP in ejaculated uterine mouse sperm from injected males; format: in vivo
Protocol: (§1) For analysis of ejaculated uterine mouse sperm, the uteri of females with mating plugs were removed and placed into 1 ml TYH buffer.

[7] = tested on: mice; format: in vivo; conditions: for at least 24 hours
[8] = tested on: ion channels, GPCRs, kinases, and nuclear receptors; conditions: cited from earlier work
[9] = tested on: ejaculated uterine mouse sperm; test: Motility (CASA) of ejaculated uterine mouse sperm from injected males; format: in vivo; parameters: hyperactivated motility (%): concentration or dose not given beside the values
Protocol: as §1
For ex vivo assessment of mouse sperm from inhibitor-treated mice, sperm (25 µl) isolated at the indicated time points (15 min to 24 hours post-injection) diluted 1:5 in non-capacitating TYH buffer were loaded on a […] Leja slide (Hamilton Thorne) and placed on a microscope stage at 37 °C. Sperm movements of 10 fields of at least 200 sperm were examined using computer-assisted sperm analysis (CASA) via Hamilton–Thorne digital image analyzer (IVOS II, Hamilton Thorne Research, Beverly, MA) with the following parameters: 30 frames, frame rate: 60 Hz, cell size: 30–170 μm^2. Ejaculated uterine mouse sperm were recorded without additional dilution. Sperm were considered motile when presenting STR ≥80% and VAP ≥50 μm/s and hyperactivated when presenting VCL ≥270 μm/s, LIN < 50%, and ALH ≥7 μm. Track´s color code: motile (green), progressive (turquoise), hyperactivated (purple), slow (pink), static (red), not counted due to late entry (yellow).

[10] = Solubility; format: physicochemical; conditions: unsuitable for chronic delivery to mice
[11] = tested on: over 310 kinases; conditions: cited from earlier work
[12] = 50 mg/kg i.p., mating period 0.5–2.5 hours, 2 hours
[13] = 50 mg/kg i.p., mating period 1–9 hours, 8 hours
[14] = Fig. 4a replicates, ejaculated uterine sperm, 2 hours after 50 mg/kg i.p.

With Cc1c(Cc2ccccc2)c(-c2cc(Cl)nc(N)n2)nn1C [TDI-10229, reference compound] the “cAMP accumulated (%)” value ([1]; printed 0) was 3.303% and 10.629% and 8.51% and 2.193% and 5.92% and 3.107% and 22.11% and 16.4972% and 11.8328% and 5.524% and 4.206% and 1.889% and 2.077%, the “cAMP accumulated (%)” value ([1]; printed 0.477121) was 0% and the “cAMP accumulated (%)” value ([1]; printed -0.52288) was 40.0361% and 25.5301% and 16.8792% and 12.1343% and 19.6251% and 46.0455% and 19.6826% and 32.1271% and 49.6122% and 23.5829% and 24.3244% and 21.4812% and 12.9118%. The “cAMP accumulated (%)” value ([1]; printed -1) was 53.928% and 46.3142% and 43.7516% and 31.429% and 23.6328% and 79.7321% and 41.9299% and 71.9606% and 102.407% and 49.6166% and 29.8946% and 34.6849% and 30.4462%, the “cAMP accumulated (%)” value ([1]; printed -1.47712) was 63.9701% and 48.7859% and 51.356% and 54.7326% and 51.5128% and 120.896% and 78.187% and 107.566% and 161.903% and 63.1342% and the cAMP accumulated ([1]; concentration (uM) -1.95424 [sic]) was 47.248 and 20.896 and 22.932 and 53.28 and 23.028 and 39.526 and 63.525 and 88.135 and 120.985 and 194.007 and 68.902 and 22.685. For the same compound, the cAMP accumulated ([1]; concentration (uM) -2.43136 [sic]) was 48.561 and 22.294 and 31.915 and 66.057 and 37.215 and 54.337 and 58.571 and 46.103 and 61.044 and 66.819 and 131.064 and 78.712 and 23.002 and the cAMP accumulated ([1]; concentration (uM) -2.90848 [sic]) was 49.13 and 27.611 and 32.179 and 77.343 and 38.522 and 35.67 and 62.766 and 41.76 and 54.941 and 113.858 and 170.305 and 78.712 and 23.104.
For Nc1nc(Cl)cc(-c2nn(C(F)F)cc2Cc2ccccc2OCCN2CCOC[C@@H]2CO)n1 [TDI-11861], the “activity in AMES assays” value [2] is given as “no significant activity”, the “activity in hERG electrophysiology studies” value [3] is given as “no significant activity” and the “activity against tmACs” value [4] is given as “no activity”. For the same compound, the “mating behavior and mating frequency versus vehicle-injected males” value ([5]; 50 mg/kg i.p.) was “same frequency as vehicle-injected males; also recorded: indistinguishable”, the Pregnancy rate ([5]; 50 mg/kg i.p., mating period 0.5–2.5 hours post injection, mating time 2 hours) was 0% and the “Pregnancy pairings (pregnancies/pairings)” value [5, 12] was “zero females became pregnant in 52 pairings; also recorded: (0/52)”. For the same compound, the Contraceptive efficacy [5, 12] was 100%, the Contraceptive efficacy ([5]; 50 mg/kg i.p., mating period 0.5–[…], 3 hours) was 91% and the Pregnancy rate ([5]; 50 mg/kg i.p., mating period 0.5–[…], mating time 3 hours) was 2.2%. The “Pregnancy pairings (pregnancies/pairings)” value [5, 13] was 5 pregnancies out of 55 and (5/55), the Contraceptive efficacy [5, 13] was 78% and the Pregnancy rate ([5]; 50 mg/kg i.p., mating period 1–9 hours, mating time 8 hours) was 9.1%. The “Pregnancy pairings (pregnancies/pairings)” value ([5]; 50 mg/kg i.p., mating period 24–120 hours, 96 hours) was “(13/15)”, the Pregnancy rate ([5]; 50 mg/kg i.p., mating period 24–120 hours, mating time 96 hours (recovery)) was 87% and the “health of F1 progeny from breakthrough pregnancies” value ([5]; male and female F1) was “matured normally into fertile adults”. For the same compound, the “bicarbonate-induced cAMP in ejaculated sperm” value ([6]; 50 mg/kg i.p., retrieved from uterus) was “no bicarbonate-induced increase in cAMP”, the “cAMP, capacitating media” value [6, 14] was 0.692 pmol/10^6 sperm and 0.283 pmol/10^6 sperm and 0.5995 pmol/10^6 sperm and 0.72 pmol/10^6 sperm and 1.204 pmol/10^6 sperm and 0.492 pmol/10^6 sperm and 0.468 pmol/10^6 sperm and 0.24 pmol/10^6 sperm and the “cAMP, non-capacitating media” value [6, 14] was 0.738 pmol/10^6 sperm and 1.2045 pmol/10^6 sperm and 0.9637 pmol/10^6 sperm and 0.847 pmol/10^6 sperm and 1.232 pmol/10^6 sperm and 0.679 pmol/10^6 sperm and 0.436 pmol/10^6 sperm and 0.514 pmol/10^6 sperm. The “abnormal mouse behavior after single oral dose” value [7] was “did not cause any abnormal mouse behavior”, the “activity versus 46-member safety panel” value [8] was “no significant activity” and the “motility of ejaculated sperm” value ([9]; 50 mg/kg i.p., retrieved from uterus post-coitus) was “immotile”. The “progressive motility (%)” value ([9]; Fig. 4b, ejaculated sperm) was 4.7% and 5.3% and 8.9% and 7% and 4% and 4.75% and 3.2%, the “hyperactivated motility (%)” value ([9]; Fig. 4c, ejaculated sperm) was 1.4% and 0.8% and 0.5% and 0.9% and 1.1% and the solubility [10] was “limited solubility”. For the same compound, the “activity against over 310 kinases” value [11] was “no significant activity”.
